Reference: US11033546B2, “Solubilized compositions for controlled proliferation of stem cells / generating inner ear hair cells using a GSK3 inhibitor: I” (Frequency Therapeutics, Inc., priority 2016, dated 2021)
Like-named read-outs stand apart in the source and are kept apart here.

Experiments:
[1] = Solubility of CHIR99021 diHCl in PBS with or without 17 wt % poloxamer 407, judged by eye and transmitted light microscopy; format: physicochemical; settings: 17 wt % poloxamer 407 in 1×PBS versus 1×PBS alone; 25 mg/ml (supersaturated); pH approximately 7.5; stirred overnight at room temperature
Procedure: CHIR99021 diHCl was combined with either 1×PBS or 17 wt % poloxamer 407 in 1×PBS at a concentration of 25 mg/ml, which was supersaturated for both solutions. After stirring the mixtures overnight at room temperature, the pH of the PBS buffers was adjusted to a pH of approximately 7.5.

[2] = Solubility of CHIR99021 diHCl in Poloxamer P-407/water solutions under refrigeration; format: physicochemical; settings: for solubility at 2 days: aqueous with cosolvent or surfactant or cyclodextrin, thermodynamic from solid, no DMSO or other additives, read-out: CHIR99021 diHCl Conc (solubility)
Procedure: CHIR99021 diHCl was combined with Poloxamer P-407 and water. Samples were prepared ice-cold and allowed to incubate in the refrigerator for 2 days with occasional vortexing.
The solubility results shown below in Table 1 for refrigeration conditions. The only components in the poloxamer solution in the samples were P-407 and water (no DMSO or any other additives). The 20% sample was a gel at room temperature and the 15% sample was syrup, while the 10% and 5% samples were more fluid.

solubility as judged by eye and transmitted light microscopy [1]: appeared more soluble
solubility at 2 days ([2]; 10% Poloxamer P-407 in water, 10% P-407 in water): 2.6 µg/mL
solubility at 2 days ([2]; 15% Poloxamer P-407 in water, 15% P-407 in water): 7.9 µg/mL
solubility at 2 days ([2]; 20% Poloxamer P-407 in water, 20% P-407 in water): 13.5 µg/mL
SMILES: Cc1c[nH]c(-c2cnc(NCCNc3ccc(C#N)cn3)nc2-c2ccc(Cl)cc2Cl)n1 [CHIR99021 diHCl, 6-[[2-[[4-(2,4-Dichlorophenyl)-5-(5-methyl-1H-imidazol-2-yl)-2-pyrimidinyl]amino]ethyl]amino]-3-pyridinecarbonitrile]
solubility trend in P-407 solutions ([2]; 5% to 20% P-407 in water): improved solubility with increasing % poloxamer concentration
